Data taken from US10736968B2, “Cellular signalling inhibitors, their formulations and methods thereof” (INVICTUS ONCOLOGY PVT. LTD., priority 2016, dated 2020).

System: AKT-mTOR-p70S6K pathway
Test: Downstream signaling in macrophages after drug washout and MCSF exposure (Western blot)
Assay type: cell-based
Conditions: 4 hours drug, washout 7 h or 48 h, MCSF 2 h

For `FC(F)(F)c1ccc(CNc2ccc(Cc3c[nH]c4ncc(Cl)cc34)cn2)cn1` [PLX3397], the AKT-mTOR-p70S6K downstream signaling was “not by BLZ945 and PLX3397”.
